We go through 1 compound from patent US6890305B2, “Reagent and method for measuring lung function” (Cambridge Isotope Laboratories, priority 2002, dated 2005).

The test in a line: 13C-sodium bicarbonate breath test in one asthma patient, pre vs post inhaler medication. Type of test: in vivo, human. The note with it: breath test 45 minutes post medication vs pre-medication, advair and albuterol taken together, FIG. 4. As for the experimental part: FIG. 3 exemplifies two such breath curves.
In this embodiment, the slope of the Δ ^13CO2 curve at time points t1 and t2 is calculated according to the following equation: slope={(Δ ^13CO2)2−(Δ ^13CO2)1}/(t2−t1)
As an example, the slope of the curve of FIG. 4 can be measured at the 10 minute time point and the 20 minute time point, to give a variable for determining lung function. […] It can be seen from FIG. 4 that the individual post-medication curve has a steeper slope for the 10 and 20 minute time point interval than prior to the medication, indicating an improved lung function. These specific time values are exemplary only and other time periods or half life of the disappearance curve can be used.
This example describes the monitoring of the reduction in airway resistance in one asthma patient following inhaler medication therapy—advair (fluticasone propionate 100 mcg and salmeterol 50 mcg inhalation powder) and albuterol (racemic (α^1-[(tert-butylamino)methyl]-4-hydroxy-m-xylene-α,α′-diol, commercially available as Ventolin®, Proventil®) a relatively selective beta2-adrenergic bronchodilator.
A breath test was performed at 7 am before the patient ingested any asthma medication. The medication was taken at 8:15 am.

With `CC(C)(C)NCC(O)c1ccc(O)c(CO)c1` (racemic) [albuterol], the “AUC of expired Δ13CO2 breath curve (cumulative ‰×h), post vs pre medication” value is “improvement” and the “slope of Δ13CO2 breath curve between 10-20 minutes, post vs pre medication” value is recorded as “possibly the slope (steepening)”.
